Assays:
Type in all cases: biochemical
[1] = molecular target: T1, recombinant mouse Acot13 (Mus musculus, UniProt Q9CQR4); experiment: thioesterase activity assay; conditions: read-out: % inhibition at 10 mM
T1 sequence (Q9CQR4 1-140): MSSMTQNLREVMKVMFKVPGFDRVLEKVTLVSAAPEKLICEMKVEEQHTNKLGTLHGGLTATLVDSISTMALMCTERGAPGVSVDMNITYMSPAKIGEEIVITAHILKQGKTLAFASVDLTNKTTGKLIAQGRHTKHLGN

[2] = molecular target: T2, Acot2 (Mus musculus, UniProt Q9QYR9); experiment: thioesterase activity in liver mitochondria overexpressing Acot2; conditions: read-out: % inhibition at 10 mM
T2 sequence (Q9QYR9 43-453): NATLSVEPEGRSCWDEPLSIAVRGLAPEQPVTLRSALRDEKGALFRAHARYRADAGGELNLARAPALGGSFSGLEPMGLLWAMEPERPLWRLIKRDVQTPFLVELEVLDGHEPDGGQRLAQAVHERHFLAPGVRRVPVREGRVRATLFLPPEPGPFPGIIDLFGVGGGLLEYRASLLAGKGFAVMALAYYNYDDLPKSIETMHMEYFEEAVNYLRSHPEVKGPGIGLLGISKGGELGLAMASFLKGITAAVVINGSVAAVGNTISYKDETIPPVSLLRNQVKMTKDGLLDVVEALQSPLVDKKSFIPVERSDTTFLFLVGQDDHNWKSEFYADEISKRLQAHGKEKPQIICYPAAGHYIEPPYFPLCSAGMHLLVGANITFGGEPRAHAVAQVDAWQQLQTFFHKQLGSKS

[3] = molecular target: T1, recombinant mouse Acot13; experiment: thioesterase activity assay

SMILES | inhibition at 10000 µM [1] [%] | inhibition at 10000 µM [2] [%] | IC50 [3] [µM]
Nc1ncnc2c1ncn2[C@@H]1O[C@H](COP(=O)(O)OP(=O)(O)O)[C@@H](O)[C@H]1O [ADP] | ~20 | ~20 | –
CC(C)(COP(=O)(O)OP(=O)(O)OC[C@H]1O[C@@H](n2cnc3c(N)ncnc32)[C@H](O)[C@@H]1OP(=O)(O)O)[C@@H](O)C(=O)NCCC(=O)NCCS [CoA] | – | – | ~35
Nc1ncnc2c1ncn2[C@@H]1O[C@H](COP(=O)(O)OP(=O)(O)OP(=O)(O)O)[C@@H](O)[C@H]1O [ATP] | ~20 | ~20 | –

Source: paper doi:10.1101/705327v1 (biorxiv, 2019)
